{"source": "ChEMBL document CHEMBL5346920", "about": "“Development of the \"hidden\" multi-target-directed ligands by AChE/BuChE for the treatment of Alzheimer's disease” (Eur J Med Chem, 2023)", "key": {"Danio rerio [1]": {"organism": "Danio rerio", "experiment": "Neuroprotective activity against AlCl3-induced Alzheimer's disease zebra fish model assessed as distance velocity at 0.078 ug/ml treated for 24 hrs and measured after 24 hrs under light environment (reference value: 7.7 cm/min)", "assay_type": "functional", "conditions": "dose 0.078 µg/ml; time 48 hrs"}, "[2]": {"experiment": "Stability of the compound in blank intestinal juice assessed as parent compound remaining at 1 mg/ml measured after 8 hrs by UPLC-MS/MS analysis", "assay_type": "ADME", "conditions": "read-out: Stability"}, "[3]": {"experiment": "Metal chelating activity assessed as compound-Zn2+ complex formation at 37.5 uM incubated for 30 mins in presence of ZnCl2 by UV-Vis spectrometry"}, "Danio rerio [4]": {"organism": "Danio rerio", "experiment": "Neuroprotective activity against AlCl3-induced Alzheimer's disease zebra fish model assessed as distance velocity at 0.0049 ug/ml treated for 24 hrs and measured after 24 hrs under dark environment (reference value: 10.4 cm/min)", "assay_type": "functional", "conditions": "dose 0.0049 µg/ml; time 48 hrs"}, "BV-2": {"test_system": "BV-2", "experiment": "Anti-inflammatory activity against LPS-stimulated mouse BV-2 cells assessed as inhibition of LPS-induced IL-6 production incubated for 24 hrs in presence of LPS", "assay_type": "functional, cell-based", "conditions": "dose 1-9 µM"}, "Acetylcholinesterase [5]": {"target": "T1, Acetylcholinesterase (Electrophorus electricus, UniProt O42275)", "T1 sequence (O42275 whole entry)": "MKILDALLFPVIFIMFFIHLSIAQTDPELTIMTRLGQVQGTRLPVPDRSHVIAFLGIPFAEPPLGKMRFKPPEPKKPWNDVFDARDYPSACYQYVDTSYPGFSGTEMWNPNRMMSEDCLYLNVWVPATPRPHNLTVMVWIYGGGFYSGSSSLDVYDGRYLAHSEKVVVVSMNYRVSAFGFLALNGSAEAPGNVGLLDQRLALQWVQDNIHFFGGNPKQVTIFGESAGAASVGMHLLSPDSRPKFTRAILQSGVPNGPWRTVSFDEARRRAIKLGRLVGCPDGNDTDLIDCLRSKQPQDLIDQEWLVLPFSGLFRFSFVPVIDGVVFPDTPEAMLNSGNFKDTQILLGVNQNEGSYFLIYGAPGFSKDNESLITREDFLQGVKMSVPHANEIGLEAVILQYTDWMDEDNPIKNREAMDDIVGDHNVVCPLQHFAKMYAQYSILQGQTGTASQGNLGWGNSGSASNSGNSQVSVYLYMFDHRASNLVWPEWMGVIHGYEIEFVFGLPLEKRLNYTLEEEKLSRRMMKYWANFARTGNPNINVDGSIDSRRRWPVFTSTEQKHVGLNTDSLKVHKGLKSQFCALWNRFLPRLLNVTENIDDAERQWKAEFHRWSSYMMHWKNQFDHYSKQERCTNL", "experiment": "Inhibition of electric eel AChE using acetylthiocholine chloride as substrate by Ellman's method"}, "Danio rerio [6]": {"organism": "Danio rerio", "experiment": "Antialzheimer activity against AlCl3-induced Alzheimer's disease zebra fish model assessed as total distance moved at 0.078 ug/ml treated for 24 hrs and measured after 24 hrs under dark environment (reference value: 312 cm)", "assay_type": "functional", "conditions": "dose 0.078 µg/ml; time 48 hrs"}, "Danio rerio [7]": {"organism": "Danio rerio", "experiment": "Neuroprotective activity against AlCl3-induced Alzheimer's disease zebra fish model assessed as increase in ACh content at 0.0049 to 0.078 ug/ml treated for 24 hrs and measured after 24 hrs", "assay_type": "functional, organism-based", "conditions": "dose 0.0049-0.078 µg/ml, time 48.0 hrs"}, "[8]": {"target": "T2, Amine oxidase [flavin-containing] B (Homo sapiens, UniProt P27338)", "T2 sequence (P27338 whole entry)": "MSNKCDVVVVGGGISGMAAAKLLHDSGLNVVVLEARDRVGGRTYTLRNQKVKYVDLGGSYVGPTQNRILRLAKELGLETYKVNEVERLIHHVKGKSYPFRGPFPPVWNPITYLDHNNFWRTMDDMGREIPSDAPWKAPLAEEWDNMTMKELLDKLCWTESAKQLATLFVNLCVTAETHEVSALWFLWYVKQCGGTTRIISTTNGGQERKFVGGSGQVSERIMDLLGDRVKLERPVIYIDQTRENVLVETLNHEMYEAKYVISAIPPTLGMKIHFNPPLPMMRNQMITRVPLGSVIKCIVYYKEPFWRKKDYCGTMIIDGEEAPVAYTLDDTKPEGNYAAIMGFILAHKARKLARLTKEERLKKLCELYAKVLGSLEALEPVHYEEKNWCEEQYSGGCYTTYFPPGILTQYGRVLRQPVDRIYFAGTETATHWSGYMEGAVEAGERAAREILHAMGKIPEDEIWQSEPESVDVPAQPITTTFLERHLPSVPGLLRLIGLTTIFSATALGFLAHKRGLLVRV", "experiment": "Inhibition of human recombinant MAO-B expressed in baculovirus-infected BTI cells using kynuramine as substrate incubated for 30 mins by fluorescence based analysis"}, "PC-12": {"test_system": "PC-12", "experiment": "Neuroprotective activity against Amyloid beta(25 to 35)-induced cell injury in rat PC12 cells assessed as cell viability at 10 uM pretreated for 2 hrs followed by incubation with Abeta(25 to 35) for 24 hrs by CCK-8 assay (reference value: 41 to 58.6%)", "assay_type": "functional", "conditions": "time 26 hrs, read-out: Activity"}, "Danio rerio [9]": {"organism": "Danio rerio", "experiment": "Antialzheimer activity against AlCl3-induced Alzheimer's disease zebra fish model assessed as total distance moved at 0.0195 ug/ml treated for 24 hrs and measured after 24 hrs under dark environment (reference value: 312 cm)", "assay_type": "functional", "conditions": "dose 0.0195 µg/ml; time 48 hrs"}, "Acetylcholinesterase [10]": {"target": "T1, Acetylcholinesterase", "experiment": "Drug metabolism assessed as electric eel AChE-mediated 3-(4-fluorophenyl)-1-(2-hydroxyphenyl)prop-2-en-1-one formation treated at 150 mmol/L with 0.25U AChE and measured after 6 secs by HPLC analysis", "assay_type": "ADME", "conditions": "6 s, time 6 sec"}, "Danio rerio [11]": {"organism": "Danio rerio", "experiment": "Antialzheimer activity against AlCl3-induced Alzheimer's disease zebra fish model assessed as distance velocity at 0.0049 ug/ml treated for 24 hrs and measured after 24 hrs under light environment (reference value: 7.7 cm/min)", "assay_type": "functional", "conditions": "dose 0.0049 µg/ml; time 48 hrs"}, "Cholinesterase [12]": {"target": "T3, Cholinesterase (Equus caballus, UniProt P81908)", "T3 sequence (P81908 whole entry)": "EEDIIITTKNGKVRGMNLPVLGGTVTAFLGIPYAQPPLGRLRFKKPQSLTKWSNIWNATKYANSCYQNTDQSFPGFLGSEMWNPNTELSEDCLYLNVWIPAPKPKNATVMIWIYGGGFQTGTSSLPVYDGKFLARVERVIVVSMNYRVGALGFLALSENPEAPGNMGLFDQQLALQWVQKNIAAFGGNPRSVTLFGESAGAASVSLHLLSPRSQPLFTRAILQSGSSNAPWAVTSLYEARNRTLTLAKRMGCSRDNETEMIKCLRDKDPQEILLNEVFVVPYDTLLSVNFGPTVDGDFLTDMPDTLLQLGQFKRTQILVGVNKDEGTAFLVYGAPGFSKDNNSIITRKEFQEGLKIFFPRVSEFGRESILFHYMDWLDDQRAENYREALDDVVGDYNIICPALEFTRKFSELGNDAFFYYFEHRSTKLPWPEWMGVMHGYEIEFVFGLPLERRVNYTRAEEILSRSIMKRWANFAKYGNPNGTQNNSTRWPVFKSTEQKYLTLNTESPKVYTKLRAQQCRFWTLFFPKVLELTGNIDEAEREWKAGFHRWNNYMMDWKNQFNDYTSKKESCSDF", "experiment": "Drug metabolism assessed as equine serum BuChE-mediated 3-(4-fluorophenyl)-1-(2-hydroxyphenyl)prop-2-en-1-one formation treated at 150 mmol/L with 0.25U BuChE and measured after 6 mins by HPLC analysis", "assay_type": "ADME, cell-free", "conditions": "horse, 0.1 h"}, "Danio rerio [13]": {"organism": "Danio rerio", "experiment": "Neuroprotective activity against AlCl3-induced Alzheimer's disease zebra fish model assessed as distance velocity at 0.0195 ug/ml treated for 24 hrs and measured after 24 hrs under dark environment (reference value: 10.4 cm/min)", "assay_type": "functional", "conditions": "dose 0.0195 µg/ml; time 48 hrs"}, "Danio rerio [14]": {"organism": "Danio rerio", "experiment": "Antialzheimer activity against AlCl3-induced Alzheimer's disease zebra fish model assessed as total distance moved at 0.0195 ug/ml treated for 24 hrs and measured after 24 hrs under alternating light dark stimuli conditions (reference value: 543 cm)", "assay_type": "functional", "conditions": "dose 0.0195 µg/ml; time 48 hrs"}, "Danio rerio [15]": {"organism": "Danio rerio", "experiment": "Neuroprotective activity against AlCl3-induced Alzheimer's disease zebra fish model assessed as inhibition of AlCl3-induced AChE activity at 0.0049 to 0.078 ug/ml treated for 24 hrs and measured after 24 hrs", "assay_type": "functional, organism-based", "conditions": "dose 0.0049-0.078 µg/ml, time 48.0 hrs"}, "Acetylcholinesterase [16]": {"target": "T1, Acetylcholinesterase", "experiment": "Drug metabolism assessed as electric eel AChE-mediated 3-(4-fluorophenyl)-1-(2-hydroxyphenyl)prop-2-en-1-one formation treated at 150 mmol/L with 0.25U AChE and measured after 9 mins by HPLC analysis", "assay_type": "ADME", "conditions": "0.15 h"}, "[17]": {"experiment": "Stability of the compound in rat liver microsomes assessed as parent compound remaining at 10 ug/ml measured after 60 mins by UPLC-MS/MS analysis", "assay_type": "ADME, Microsome", "conditions": "at 10 µg/mL, read-out: Stability"}, "[18]": {"experiment": "Acute toxicity in zebra fish assessed as ratio of pericardial edema to body weight at 0.15625 to 2.5 ug/ml and measured at 120 hpf by microscopic analysis", "parameters": "species or system Danio rerio", "conditions": "zebrafish; dose 0.15625-2.5 µg/ml"}, "[19]": {"experiment": "Stability of the compound in blank gastric juice assessed as parent compound remaining at 1 mg/ml measured after 8 hrs by UPLC-MS/MS analysis", "assay_type": "ADME", "conditions": "read-out: Stability"}, "Cholinesterase [20]": {"target": "T3, Cholinesterase", "experiment": "Drug metabolism assessed as equine serum BuChE-mediated 3-(4-fluorophenyl)-1-(2-hydroxyphenyl)prop-2-en-1-one formation by measuring decarbamoylation rate constant with 0.25U BuChE for 9 mins by HPLC analysis", "assay_type": "ADME, cell-free", "conditions": "horse, 0.15 h"}, "[21]": {"experiment": "Stability of the compound in rat plasma assessed as parent compound remaining at 10 ug/ml measured after 3 hrs by UPLC-MS/MS analysis", "assay_type": "ADME, cell-free", "conditions": "at 10 µg/mL, read-out: Stability"}, "Cholinesterase [22]": {"target": "T3, Cholinesterase", "experiment": "Drug metabolism assessed as equine serum BuChE-mediated 3-(4-fluorophenyl)-1-(2-hydroxyphenyl)prop-2-en-1-one formation with 0.25U BuChE for 9 mins by HPLC analysis", "assay_type": "ADME, cell-free", "conditions": "horse, 0.15 h"}, "Cholinesterase [23]": {"target": "T3, Cholinesterase", "experiment": "Drug metabolism assessed as equine serum BuChE-mediated 3-(4-fluorophenyl)-1-(2-hydroxyphenyl)prop-2-en-1-one formation treated at 150 mmol/L with 0.25U BuChE and measured after 6 secs by HPLC analysis", "assay_type": "ADME, cell-free", "conditions": "horse, 6 s, time 6 sec"}}, "note": "The source made the active and inactive calls. The calls are words filed in the database; no cut-off is given here.", "data": [{"smiles": "CCN(C)C(=O)Oc1ccccc1C(=O)/C=C/c1ccc(F)cc1", "values": [{"measurement": "Activity", "setting": "Danio rerio [1]", "value": 7.5, "unit": "cm/min"}, {"measurement": "remaining at 8 h, 1 mg/ml", "setting": "[2]", "value": 98.5, "unit": "%"}, {"measurement": "Activity", "setting": "[3]", "value": "inactive"}, {"measurement": "Activity", "setting": "Danio rerio [4]", "value": 13, "unit": "cm/min"}, {"measurement": "Activity", "setting": "BV-2", "value": "Dose-Dependent Effect"}, {"measurement": "IC50", "setting": "Acetylcholinesterase [5]", "value": 5.3, "unit": "µM"}, {"measurement": "Activity", "setting": "Danio rerio [6]", "value": 537, "unit": "cm"}, {"measurement": "Activity", "setting": "Danio rerio [7]", "value": "Active"}, {"measurement": "IC50", "setting": "[8]", "value": 1.9, "unit": "µM"}, {"measurement": "viability at 10 µM", "setting": "PC-12", "value": 75, "unit": "%"}, {"measurement": "Activity", "setting": "Danio rerio [9]", "value": 577, "unit": "cm"}, {"measurement": "Drug metabolism", "setting": "Acetylcholinesterase [10]", "value": 1.46, "unit": "mmol/L"}, {"measurement": "Activity", "setting": "Danio rerio [11]", "value": 12.4, "unit": "cm/min"}, {"measurement": "Drug metabolism", "setting": "Cholinesterase [12]", "value": 14.62, "unit": "mmol/L"}, {"measurement": "Activity", "setting": "Danio rerio [13]", "value": 19.2, "unit": "cm/min"}, {"measurement": "Activity", "setting": "Danio rerio [14]", "value": 922, "unit": "cm"}, {"measurement": "Activity", "setting": "Danio rerio [15]", "value": "Active"}, {"measurement": "Drug metabolism", "setting": "Acetylcholinesterase [16]", "value": 22.57, "unit": "mmol/L"}, {"measurement": "remaining at 1 h, 10 ug/ml", "setting": "[17]", "value": 96.2, "unit": "%"}, {"measurement": "Activity", "setting": "[18]", "value": "Non-Toxic"}, {"measurement": "remaining at 8 h, 1 mg/ml", "setting": "[19]", "value": 103, "unit": "%"}, {"measurement": "K", "setting": "Cholinesterase [20]", "value": 4.05, "unit": "M⁻¹ s⁻¹"}, {"measurement": "remaining at 3 h, 10 ug/ml", "setting": "[21]", "value": 99.3, "unit": "%"}, {"measurement": "Km", "setting": "Cholinesterase [22]", "value": 113, "unit": "µM"}, {"measurement": "Drug metabolism", "setting": "Cholinesterase [23]", "value": 1.51, "unit": "mmol/L"}]}]}
